Test results as given in ChEMBL document CHEMBL6087460, “Generating a Peptide Library Using the Repeats of Amino Acid Scaffolds Created by Sliding the Framework of a 7-mer Human Chemerin Segment and Discovery of Potent Antibacterial and Antimycobacterial Peptides” (J Med Chem, 2025).
Where a SMILES comes first, the peptide text is derived from it.

What was measured:
[1] = Drug localization in cytoplasm of Mycobacterium smegmatis at 1 ug/ml by confocal microscopy; type: ADME, subcellular; conditions: mycolicibacterium smegmatis; dose 1 µg/ml
[2] = Drug localization in cell membrane of Escherichia coli ATCC 25922 at 3 times MIC by confocal microscopy; type: ADME, cell membranes

Drug uptake [1] | Drug uptake [2] | SMILES
Active | Active | CC(C)C[C@H](NC(=O)[C@H](CCCNC(=N)N)NC(=O)CNC(=O)[C@@H](NC(=O)[C@H](CC(C)C)NC(=O)[C@H](CCCNC(=N)N)NC(=O)CNC(=O)[C@@H](NC(=O)[C@H](CC(C)C)NC(=O)[C@H](CCCNC(=N)N)NC(=O)CNC(=O)[C@@H](NC(=O)[C@H](CC(C)C)NC(=O)[C@H](CCCNC(=N)N)NC(=O)CNC(=O)c1cc(C(=O)O)ccc1-c1c2ccc(=[N+](C)C)cc-2oc2cc(N(C)C)ccc12)C(C)C)C(C)C)C(C)C)C(=O)N[C@H](C(=O)O)C(C)C.[Cl-] (HELM PEPTIDE1{[CN(C)c1ccc2c(-c3ccc(C(=O)O)cc3C(=O)[*:2])c3ccc(=[N+](C)C)cc-3oc2c1].G.R.L.V.G.R.L.V.G.R.L.V.G.R.L.V}$$$$V2.0)
Active | Active | CC(C)C[C@H](NC(=O)[C@@H](NC(=O)c1cc(C(=O)O)ccc1-c1c2ccc(=[N+](C)C)cc-2oc2cc(N(C)C)ccc12)C(C)C)C(=O)NCC(=O)N[C@@H](CCCNC(=N)N)C(=O)N[C@H](C(=O)N[C@@H](CC(C)C)C(=O)NCC(=O)N[C@@H](CCCNC(=N)N)C(=O)N[C@H](C(=O)N[C@@H](CC(C)C)C(=O)NCC(=O)N[C@@H](CCCNC(=N)N)C(=O)N[C@H](C(=O)N[C@@H](CC(C)C)C(=O)NCC(=O)N[C@@H](CCCNC(=N)N)C(=O)O)C(C)C)C(C)C)C(C)C.[Cl-] (HELM PEPTIDE1{[CN(C)c1ccc2c(-c3ccc(C(=O)O)cc3C(=O)[*:2])c3ccc(=[N+](C)C)cc-3oc2c1].V.L.G.R.V.L.G.R.V.L.G.R.V.L.G.R}$$$$V2.0)
